Patent US7374898B2, “Peptide inhibitors against seprase” (The Research Foundation of State University of New York, priority 2004, dated 2008)
pKi: −log10 of the molar value. “Also recorded” adds a separate entry of the source. Where two headings read alike, the source gives them in different places. One block for each compound: values may come before it. Where a SMILES comes first, the peptide text is derived from it. Bridges are numbered along the chain shown (N, C = ends).

What was measured:
[1] = biological target: T1, seprase (Homo sapiens, UniProt Q12884); assay: Prolyl dipeptidase activity of seprase, Gly-Pro-pNA substrate; details: for inhibition of the prolyl dipeptidase activity of seprase: Gly-Pro-pNA 2 mM, different concentrations of peptides; for inhibition of seprase: FIG. 1
T1 sequence (Q12884 1-760): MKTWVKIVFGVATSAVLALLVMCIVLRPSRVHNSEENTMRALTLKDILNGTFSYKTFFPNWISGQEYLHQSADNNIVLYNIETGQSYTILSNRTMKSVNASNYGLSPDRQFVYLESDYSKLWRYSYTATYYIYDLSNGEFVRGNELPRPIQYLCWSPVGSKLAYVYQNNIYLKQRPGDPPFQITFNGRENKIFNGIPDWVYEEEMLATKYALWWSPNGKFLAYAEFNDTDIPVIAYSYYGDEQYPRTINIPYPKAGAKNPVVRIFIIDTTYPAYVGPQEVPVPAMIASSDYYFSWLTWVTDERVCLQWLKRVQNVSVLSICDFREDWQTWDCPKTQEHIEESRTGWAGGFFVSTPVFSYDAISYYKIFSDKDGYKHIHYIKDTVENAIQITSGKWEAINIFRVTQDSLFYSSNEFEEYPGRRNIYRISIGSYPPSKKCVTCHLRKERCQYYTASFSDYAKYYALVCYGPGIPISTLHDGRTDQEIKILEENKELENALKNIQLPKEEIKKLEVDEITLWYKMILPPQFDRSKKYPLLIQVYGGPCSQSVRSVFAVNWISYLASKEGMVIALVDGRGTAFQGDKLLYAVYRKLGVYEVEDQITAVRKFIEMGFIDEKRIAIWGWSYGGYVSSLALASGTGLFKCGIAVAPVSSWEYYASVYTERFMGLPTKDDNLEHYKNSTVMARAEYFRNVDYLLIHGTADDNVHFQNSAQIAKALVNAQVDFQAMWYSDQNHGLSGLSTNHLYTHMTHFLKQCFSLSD

[2] = tested on: LOX cells; assay: Cell viability, apoptosis and cell death assays on collagen films; type: cell-based; design: dose or concentration left out as unconfirmed
Method: In parallel to the assay assessing the overall collagen degradation by LOX cells described above (FIG. 3A), LOX cells grown on collagen films were determined for their physiological responses to peptide or other protease inhibitors in terms of cell viability (FIG. 3B), apoptosis (FIG. 3C) and cell death (FIG. 3D). Cell viability, apoptosis and cell death assays were performed using Molecular Probes (Eugene, Oreg.) Live/Dead Viability/Cytotoxicity kit and Vybrant Apoptosis Assay Kit #4 and followed the manufacturer's instruction. LOX cells (10^4/well) were cultured on a type I collagen coated 96-well microtiter plate in the presence of inhibitors at 37° C. overnight. After washing gently with PBS, dyes for the cell viability assay (Calcein Am, 2 mM, only stained live cells) and for the apoptosis assay (YO-PRO [a fluorescent nuclear dye], 0.25 mM, stained apoptotic cells; ethidium homodimer-1, 4 mM, stained dead cells) were added and incubated at 25° C. for 45 min. The fluorescence intensity was read at the wavelength of 485 nm/538 nm or 544 nm/612 nm. In the LIVE/DEAD Viability/Cytotoxicity Assay, high fluorescent intensity indicates high number of viable cells, whereas in the Vybrant Apoptosis Assay, high fluorescent intensity units indicate high number of apoptotic or dead cells.

[3] = tested on: human ovarian tumor cells
[4] = tested on: LOX cells; assay: Overall collagen degradation by cells, Bodipy FL C5 labelled type I collagen microtiter plate; type: cell-based, human; details: 16 hours, 37° C., FIG. 3A
Method: The assay involves coating 96-well microtiter plates with Bodipy FL C5 labelled type I collagen films. It allows direct measurement of collagen degradation by cells, as the release of fluorescent intensity is in proportion to the degree of collagen degradation. To prepare collagen films, collagen solution mixed with DMEM (1:4 v/v) was coated as a thin layer in each well of a 96-well microtiter plate, and incubated for 1 h at 37° C. to allow gel formation. Labeling of collagen films involved borate buffer, pH 8.3, containing 3 mg of BODIPY FL C5 (Molecular Probes) at 25° C. To determine collagen degradation by cells, LOX cells (10^4/well) were seeded in a 96-well microtiter plate pre-coated with Bodipy FL C5 labeled type I collagen, and incubated in the presence of different concentrations of inhibitors at 37° C. for 16 hours. The increase in fluorescence at 485 nm (excitation)/538 nm (emission) is proportional to the ability of cells to degrade fluorescently labeled collagen films. Change in fluorescent intensity was monitored with a fluorescence microtiter plate reader (Molecular Devices, Sunnyvale, Calif.).

[5] = biological target: matrix metalloproteinase; details: supplier information; read-out: Ki of matrix metalloproteinase inhibitor; cited from earlier work
[6] = biological target: DPP4 (Homo sapiens, UniProt P27487); details: reported values; read-out: KiDPP4 of reported DPP4 competitive inhibitors; cited from earlier work
DPP4, sequence (P27487 whole entry, species assumed): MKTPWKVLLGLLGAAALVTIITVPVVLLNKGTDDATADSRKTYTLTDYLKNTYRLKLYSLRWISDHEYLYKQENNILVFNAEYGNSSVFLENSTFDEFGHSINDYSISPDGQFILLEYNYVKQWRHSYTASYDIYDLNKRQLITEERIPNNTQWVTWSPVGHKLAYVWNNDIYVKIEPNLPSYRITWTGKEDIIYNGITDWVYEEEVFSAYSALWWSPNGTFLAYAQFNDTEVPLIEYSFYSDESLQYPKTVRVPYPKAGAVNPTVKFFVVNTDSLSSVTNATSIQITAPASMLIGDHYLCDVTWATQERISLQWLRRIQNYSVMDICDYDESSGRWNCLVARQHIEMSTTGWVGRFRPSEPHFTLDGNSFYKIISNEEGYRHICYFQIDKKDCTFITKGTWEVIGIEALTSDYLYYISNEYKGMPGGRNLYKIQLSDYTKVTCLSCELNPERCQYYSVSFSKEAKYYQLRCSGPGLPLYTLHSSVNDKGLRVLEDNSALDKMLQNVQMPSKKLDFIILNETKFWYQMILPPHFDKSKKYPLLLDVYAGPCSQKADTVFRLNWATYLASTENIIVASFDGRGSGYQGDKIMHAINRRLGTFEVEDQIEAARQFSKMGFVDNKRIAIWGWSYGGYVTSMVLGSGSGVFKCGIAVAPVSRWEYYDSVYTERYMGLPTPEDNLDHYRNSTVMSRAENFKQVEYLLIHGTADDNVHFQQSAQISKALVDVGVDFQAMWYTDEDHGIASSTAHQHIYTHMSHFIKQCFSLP

[7] = tested on: Human ovarian cancer cells isolated from mouse ascites; assay: In vitro extracellular matrix degradation and ingestion assay on TRITC-type I collagen films; type: cell-based; details: at 1 mM, 16 to 24 hours
Method: It consists of seeding tumor cells on fluorescently labeled type I collagen films and determining the ability of tumor cells to degrade and ingest the fluorescently labeled extracellular matrix. Two inhibitors, H-Ile-Pro-NHO-PNB (DPP4-specific) and the cyclic peptide [sequence] [SEQ ID NO:3] (seprase-specific) were used. Human ovarian cancer cells isolated from mouse ascites as described in Example 7 were seeded on TRITC-type I collagen films.

[8] = biological target: T1, seprase; assay: Gelatinolytic activity of seprase, soluble fluorescent DQ-gelatin assay; type: biochemical; design: Native seprase, which was isolated from LOX cells grown on type I collagen films according to previously described procedures; endogenous in cells; host or cells: LOX human amelanotic melanoma cells; WGA-enriched fraction, immuno-captured with mAb D8; details: DQ-gelatin 25 μg/ml, 37° C., 16 hours, FIG. 1B
[9] = tested on: SKMEL-28 cells; assay: Peptide binding to seprase-negative SKMEL-28 cells (ELISA and immunofluorescence); type: cell-based, human
Method: (§1) It was also determined if synthetic peptides targeting seprase could bind seprase-expressing LOX cells but not seprase-negative tumor cells including the human melanoma cell line SKMEL-28.

[10] = tested on: LOX cells; assay: Peptide binding to seprase-expressing LOX cells (ELISA and immunofluorescence); type: cell-based, human
Method: as §1

[11] = tested on: GFP-LOX cells; assay: Melanoma growth and metastasis to lung and liver in nude mice co-inoculated with GFP-LOX cells; type: in vivo, NCR Nude mice; details: CDMWERVSRC 300 μM or control peptide 500 μM, 28 days
Method: Number of GFP-melanoma cells or micrometastases in lung (J) and liver (K) tissues freshly excised from animals was counted per 3×10^5 μm^2 under an epifluorescence microscope.
We next determined whether [sequence] […] GFP-tagged LOX cells, 2×10^5 cells/mouse, were co-inoculated subcutaneously with peptides into flanks of NCR Nude mice, and followed by daily injections of peptide solutions into sites 2 mm adjacent to tumors. […] GFP-tagged LOX cells, 2×10^5 cells suspended in 100 ml of serum-free DMEM, that were pre-incubated with [sequence] [SEQ ID NO: 3] (300 μM) or control peptides (500 μM) were injected subcutaneously into flanks of NCR Nude mice (female; Taconic Co., Germantown, N.Y.). In addition, [sequence] [SEQ ID NO: 3] (300 μM) and control peptides (500 μM) were daily injected into the subcutaneous tissue 2 mm adjacent to tumor sites. Total of 3 mice were used for each experimental or control group. Tumors were measured twice a week. After 28 days, mice were sacrificed by anesthetic overdose. Tissues including primary tumor, lung and liver were removed and examined for GFP tagged melanoma cells and micrometastases by epifluorescence microscopy, followed by enumeration and photography. Melanoma cells in lung and liver were calculated by counting number of GFP-melanoma cells or micrometastases in these tissues freshly excised from animals in a 3×10 μm^2 area in 10 different regions.

Compound: CSCC[C@@H]1NC(=O)[C@H](CC(=O)O)NC(=O)[C@@H](N)CSSC[C@@H](C(=O)O)NC(=O)[C@H](CCCNC(=N)N)NC(=O)[C@H](CO)NC(=O)[C@H](C(C)C)NC(=O)[C@H](CCCNC(=N)N)NC(=O)[C@H](CCC(=O)O)NC(=O)[C@H](Cc2c[nH]c3ccccc23)NC1=O (H-CDMWERVSRC-OH; disulfide 1-10 (inferred); N-terminus and C-terminus assumed)
increase of catalytic Km value [1]: 5 times
inhibition at 100 µM ([1]; read-out: inhibition of seprase prolyl dipeptidase activity): > 60%
toxicity to cells [2]: not toxic or lethal to cells
inhibition of growth in ascites and on peritoneum ([3]; mouse, in vivo, ip): more than 90%

Compound: CC(C)(C)[C@H](NC(=O)[C@H](CCCc1ccc(Cl)cc1)CC(=O)NO)C(N)=O [CT-1746]
inhibition of overall collagen degradation by LOX cells (words) [4]: inhibited the overall collagen degradation by LOX cells in a dose dependent manner; also recorded: strongest inhibitory effect
pKi [5]: 6.91

Compound: N[C@@H](CCC(=O)NCC(=O)NCC(=O)NCC(=O)NCC(=O)NCC(=O)O)C(=O)N1CCSC1 [H-Glu(Gly5)-Thia]
inhibition of the prolyl dipeptidase activity of seprase ([1]; FIG. 1A): inhibit
pKi [6]: 7.10

Compound: CCC(C)C(N)C(=O)N1CCSC1 (stereo not shown) [H-Ile-Thia]
inhibition of the prolyl dipeptidase activity of seprase ([1]; FIG. 1A): inhibit
pKi ([1]; read-out: Ki, prolyl dipeptidase activity of seprase, PBS pH 7.4, 37° C., 8.0 mM Gly-Pro-pNA, FIG. 1D): 7.00
inhibition of the gelatinolytic activity of seprase [8]: did not inhibit

Compound: GGAGDMWERVSRG
binding to SKMEL-28 cells [9]: did not bind
binding to LOX cells [10]: strong binding

Compound: GRGTWN [control peptide]
inhibition of the prolyl dipeptidase activity of seprase ([1]; FIG. 1A): no inhibition
inhibition of overall collagen degradation by LOX cells (words) [4]: did not

Compound: REMSDWRV
inhibitory effect relative to DMWERVSR ([1]; % of the effect of DMWERVSR, FIG. 1A): less than 10%
inhibition of overall collagen degradation by LOX cells (words) [4]: did not

Compound: RKISASEFDRPLR [control peptide]
binding to SKMEL-28 cells [9]: did not bind
binding to LOX cells [10]: not

Second part, led by results:

inhibition of the gelatinolytic activity of seprase [8]: did not inhibit
Compound: CC[C@H](C)[C@H](N)C(=O)N1CCC[C@H]1C(=O)NOC(=O)c1ccc([N+](=O)[O-])cc1 [H-Ile-Pro-NHO-PNB]
block of degradation and ingestion of collagen film [7]: 50%
inhibition of overall collagen degradation by LOX cells (words) [4]: inhibited the overall collagen degradation by LOX cells in a dose dependent manner
inhibition of overall collagen degradation by LOX cells (words) ([4]; listed as H-Ile-Pro-NHO-pNB): weak
inhibition of growth in ascites and on peritoneum ([3]; i.p. human ovarian tumor cells, 8 weeks, equimolecular amounts): 50%

inhibition of seprase [1]: potent inhibitors
inhibition of the prolyl dipeptidase activity of seprase ([1]; FIG. 1A): inhibit
Compound: DLDYLSKF

inhibition of seprase [1]: potent inhibitors
activity in inhibiting seprase prolyl dipeptidase compared with other inhibitors ([1]; FIG. 1A): more active than DLDYLSKF
inhibition of the prolyl dipeptidase activity of seprase ([1]; FIG. 1A): inhibit
Compound: DMWERVSR

inhibition of the prolyl dipeptidase activity of seprase ([1]; FIG. 1A): no inhibition
Compound: GGYR

inhibition of the gelatinolytic activity of seprase [8]: do not
Compound: YISGR [control peptide]
formation of liver micrometastases [11]: did not
formation of lung micrometastases [11]: did not
formation of LOX-derived human melanoma ([11]; co-inoculated s.c. and daily injections): did not
